In patent publication US20260138988A1, “Spiropyrrolidine Derived Antiviral Agents” (Enanta Pharmaceuticals, Inc., priority 2021, published 2026):

Biological target: SARS-CoV-2 3CL-protease (Severe acute respiratory syndrome coronavirus 2, UniProt P0DTD1)
Assay: SARS-CoV-2 3C-Like (3CL) Protease Fluorescence Assay (FRET)
Assay type: biochemical
Conditions: SARS-CoV-2 3CL-protease 10 nM, test compounds 0-10 μM, duplicate, read-out: IC50

SMILES | IC50 [µM]
C[C@H](NC(=O)c1cc(F)c(F)c(F)c1)C(=O)N(C)[C@@H](CC(C)(C)C)C(=O)N1C[C@]2(C[C@H]1C#N)C(=O)Nc1ccccc12 [Example 214] | < 0.1
C[C@H](NC(=O)c1cccc2cc(F)ccc12)C(=O)N(C)[C@@H](CC(C)(C)C)C(=O)N1C[C@]2(C[C@H]1C#N)C(=O)Nc1ccccc12 [Example 215] | < 0.1
C[C@H](NC(=O)c1ccc(OC2CC2)c(OC2CC2)c1)C(=O)N(C)[C@@H](CC(C)(C)C)C(=O)N1C[C@]2(C[C@H]1C#N)C(=O)Nc1ccccc12 [Example 216] | < 0.1
CC(C)C[C@@H](C(=O)N1C[C@]2(C[C@H]1C#N)C(=O)Nc1ccccc12)N(C)C(=O)[C@H](C)NC(=O)C(C)C [Example 217] | < 0.1
C[C@H](NC(=O)c1ccc(F)cc1)C(=O)N[C@@H](CC(C)(C)C)C(=O)N1C[C@]2(C[C@H]1C#N)C(=O)Nc1ccccc12 [Example 218] | < 0.1
C[C@H](NC(=O)C(C)(C)C)C(=O)N[C@@H](CC(C)(C)C)C(=O)N1C[C@]2(C[C@H]1C#N)C(=O)Nc1ccccc12 [Example 219] | < 0.1
C[C@H](NC(=O)c1cc(F)c2nn(C3CC3)cc2c1)C(=O)N(C)[C@@H](CC(C)(C)C)C(=O)N1C[C@]2(C[C@H]1C#N)C(=O)Nc1ccccc12 [Example 220] | < 0.1
C[C@H](NC(=O)c1cnn(-c2ccc(C(F)(F)F)cc2)c1)C(=O)N(C)[C@@H](CC(C)(C)C)C(=O)N1C[C@]2(C[C@H]1C#N)C(=O)Nc1ccccc12 [Example 221] | < 0.1
C[C@H](NC(=O)C(F)(F)F)C(=O)N[C@@H](CC(C)(C)C)C(=O)N1C[C@]2(C[C@H]1C#N)C(=O)Nc1ccccc12 [Example 222] | < 0.1
CC(C)C(=O)N[C@@H](C)C(=O)N[C@@H](CC(C)(C)C)C(=O)N1C[C@]2(C[C@H]1C#N)C(=O)Nc1ccccc12 [Example 223] | < 0.1
C[C@H](NC(=O)c1ccc(F)cc1)C(=O)N(C)[C@@H](CC(C)(C)C)C(=O)N1C[C@]2(C[C@H]1C#N)C(=O)Nc1ccccc12 [Example 224] | < 0.1
CC(C)(C)C[C@H](NC(=O)c1ccc(F)cc1)C(=O)N[C@@H](CC(C)(C)C)C(=O)N1C[C@]2(C[C@H]1C#N)C(=O)Nc1ccccc12 [Example 225] | < 0.1
CC(C)(C)C[C@H](NC(=O)C(F)(F)F)C(=O)N[C@@H](CC(C)(C)C)C(=O)N1C[C@]2(C[C@H]1C#N)C(=O)Nc1ccccc12 [Example 226] | < 0.1
C[C@H](NC(=O)OCc1ccccc1)C(=O)N[C@@H](CC(C)(C)C)C(=O)N1C[C@]2(C[C@H]1C#N)C(=O)Nc1ccccc12 [Example 227] | < 0.1
CN(C(=O)[C@@H]1CC[C@@H](C2CC2)N1)[C@@H](CC(C)(C)C)C(=O)N1C[C@]2(C[C@H]1C#N)C(=O)Nc1ccccc12 [Example 228] | < 0.1
CN(C(=O)[C@@H]1C[C@@H](C(F)(F)F)CN1)[C@@H](CC(C)(C)C)C(=O)N1C[C@]2(C[C@H]1C#N)C(=O)Nc1ccccc12 [Example 229] | < 0.1
CN1C[C@H](C(F)(F)F)C[C@H]1C(=O)N(C)[C@@H](CC(C)(C)C)C(=O)N1C[C@]2(C[C@H]1C#N)C(=O)Nc1ccccc12 [Example 230] | 0.1 to 1
CN(C(=O)[C@@H]1C[C@H](c2ccccc2)CN1)[C@@H](CC(C)(C)C)C(=O)N1C[C@]2(C[C@H]1C#N)C(=O)Nc1ccccc12 [Example 231] | < 0.1
CN(C(=O)[C@@H]1C[C@@H](c2ccccc2)CN1)[C@@H](CC(C)(C)C)C(=O)N1C[C@]2(C[C@H]1C#N)C(=O)Nc1ccccc12 [Example 232] | < 0.1
CN(C(=O)[C@@H]1CC[C@@H](C(F)(F)F)N1)[C@@H](CC(C)(C)C)C(=O)N1C[C@]2(C[C@H]1C#N)C(=O)Nc1ccccc12 [Example 233] | < 0.1

SMILES | IC50 [µM]
CN(C(=O)[C@@H]1CC[C@H](C(F)(F)F)N1C)[C@@H](CC(C)(C)C)C(=O)N1C[C@]2(C[C@H]1C#N)C(=O)Nc1ccccc12 [Example 234] | < 0.1
CC(C)N1[C@H](C(=O)N(C)[C@@H](CC(C)(C)C)C(=O)N2C[C@]3(C[C@H]2C#N)C(=O)Nc2ccccc23)CC[C@@H]1C(F)(F)F [Example 235] | 0.1 to 1
CC(C)N1[C@H](C(F)(F)F)CC[C@H]1C(=O)N(C)[C@@H](CC(C)(C)C)C(=O)N1C[C@]2(C[C@H]1C#N)C(=O)Nc1ccccc12 [Example 236] | 0.1 to 1
CC(C)C[C@@H](C(=O)N1C[C@]2(C[C@H]1C#N)C(=O)Nc1ccccc12)N(C)C(=O)[C@H]1CC[C@H](c2ccc(F)cc2)N1C(C)C [Example 237] | < 0.1
CC(C)C[C@@H](C(=O)N1C[C@]2(C[C@H]1C#N)C(=O)Nc1ccccc12)N(C)C(=O)[C@@H]1CC[C@@H](c2ccc(F)cc2)N1C(C)C [Example 238] | < 0.1
C[C@@H]1CC[C@@H](C(=O)N(C)[C@@H](CC(C)(C)C)C(=O)N2C[C@]3(C[C@H]2C#N)C(=O)Nc2ccccc23)N1C [Example 239] | < 0.1
CCN1[C@H](C(=O)N(C)[C@@H](CC(C)C)C(=O)N2C[C@]3(C[C@H]2C#N)C(=O)Nc2ccccc23)CCC1(C)C [Example 240] | < 0.1
CC(C)C[C@@H](C(=O)N1C[C@]2(C[C@H]1C#N)C(=O)Nc1ccccc12)N(C)C(=O)[C@@H]1CC2(CC2)CN1C(C)C [Example 241] | < 0.1
C[C@H](NC(=O)/C=C/c1ccc(F)cc1)C(=O)N(C)[C@@H](CC(C)(C)C)C(=O)N1C[C@]2(C[C@H]1C#N)C(=O)Nc1ccccc12 [Example 242] | < 0.1
C[C@H](NC(=O)C(F)(F)Cc1ccc(F)cc1)C(=O)N(C)[C@@H](CC(C)(C)C)C(=O)N1C[C@]2(C[C@H]1C#N)C(=O)Nc1ccccc12 [Example 243] | < 0.1
C[C@H](NC(=O)C(F)(F)CCc1ccccc1)C(=O)N(C)[C@@H](CC(C)(C)C)C(=O)N1C[C@]2(C[C@H]1C#N)C(=O)Nc1ccccc12 [Example 244] | < 0.1
CC(C)(C)C[C@H](NC(=O)[C@@H](NC(=O)C(F)(F)F)c1ccccc1)C(=O)N1C[C@]2(C[C@H]1C#N)C(=O)Nc1ccccc12 [Example 245] | < 0.1
CC(C)(C)C[C@H](NC(=O)[C@@H](NC(=O)C1CCC1)c1ccccc1)C(=O)N1C[C@]2(C[C@H]1C#N)C(=O)Nc1ccccc12 [Example 246] | < 0.1
CC(C)(C)C[C@H](NC(=O)[C@@H](NC(=O)c1ccc(F)cc1)c1ccccc1)C(=O)N1C[C@]2(C[C@H]1C#N)C(=O)Nc1ccccc12 [Example 247] | < 0.1
CC(C)(C)C[C@H](NC(=O)[C@@H](NC(=O)C1(c2ccccc2)CC1)c1ccccc1)C(=O)N1C[C@]2(C[C@H]1C#N)C(=O)Nc1ccccc12 [Example 248] | < 0.1
CC(C)(C)C[C@H](NC(=O)[C@@H](NC(=O)C(F)(F)c1ccccc1)c1ccccc1)C(=O)N1C[C@]2(C[C@H]1C#N)C(=O)Nc1ccccc12 [Example 249] | < 0.1
CC(C)C[C@H](NC(=O)OC1CCC1)C(=O)N[C@@H](CC(C)(C)C)C(=O)N1C[C@]2(C[C@H]1C#N)C(=O)Nc1ccccc12 [Example 250] | < 0.1
CC(C)C[C@@H](C(=O)N1C[C@]2(C[C@H]1C#N)C(=O)Nc1ccccc12)N(C)C(=O)[C@@H]1[C@@H]2C[C@@H]2CN1C(C)C [Example 251] | 0.1 to 1
CC(C)C[C@@H](C(=O)N1C[C@]2(C[C@H]1C#N)C(=O)Nc1ccccc12)N(C)C(=O)[C@@H]1[C@@H]2C[C@@H]2CN1C1CC1 [Example 252] | 0.1 to 1
